Data: patent publication USRE35748E, “Treatments employing drug containing matrices for introduction into cellular lesion areas” (priority 1995, dated 1998)
Counter-ions that a name gives are not always drawn.

Tests used:
white blood cells = test: White blood cell count in treated tumor-bearing mice; type: in vivo, C3H/He mice; conditions: 5-FU 100 mg/kg, day 4 post-treatment, mean ± S.E. (Table 3)
Excerpt: the tail of treatment mice.
(§1) Otherwise, the procedure was the same. The following Table 5 indicates the results.
(§2) The following Table 6 provides the results.

skin overlying the tumor = test: Skin reaction of skin overlying the tumor; type: in vivo, C3H/He mice
Excerpt: The skin reaction is scored as follows:
1 = superficial inflammation;
post injection. The skin reaction is scored as follows:
as §1, §2

[1] = Acute animal toxicity / survival; conditions: for Animal Survival: ADM 15 mg/kg, deaths usually within 2 days
Protocol: The adriamycin in distilled water (4.45 mg/ml) was mixed with 36 mg/ml bovine collagen (BC) 1:1 to yield a composition ratio of 2.25 mg adriamycin:18 mg BC/ml.

Row | SMILES | White Blood Cells/mm^3 (white blood cells; i.p.) | White Blood Cells/mm^3 (white blood cells; i.t. (EPI 5 mg/kg where present)) | Skin Reaction (skin overlying the tumor; 5-FU 75 mg/Kg, i.p., 5 min before X-rays (1000 rad), score 0-3 (Table 9)) | Skin Reaction (skin overlying the tumor; 5-FU 75 mg/Kg, i.p., no X-rays, score 0-3 (Table 9)) | Skin Reaction (skin overlying the tumor; 5-FU 100 mg/kg, i.t. (EPI 5 mg/kg where present), Day 8, score 0 = no effect, 1 = superficial inflammation, 2 = scab, 3 = ulcer (Table 3)) | toxicity ([1]; 15 mg/kg, intratumoral injection) | Animal Survival ([1]; i.p.) [%] | Animal Survival ([1]; i.t.) [%] | Skin Reaction (skin overlying the tumor; ADM 15 mg/kg, i.t., Day 8, score 0 = no effect, 1 = superficial inflammation, 2 = scab, 3 = ulcer)
1 | O=c1[nH]cc(F)c(=O)[nH]1 [5-FU, 5-fluorouracil] | 4.5 ± 0.6 Cells/mm^3 (×10^3) | 3.5 ± 0.5 Cells/mm^3 (×10^3) | 2 | 2 | 0 | – | – | – | –
2 | COc1cccc2c1C(=O)c1c(O)c3c(c(O)c1C2=O)C[C@@](O)(C(=O)CO)C[C@@H]3O[C@H]1C[C@H](N)[C@H](O)[C@H](C)O1 [Free ADM, doxorubicin-HCl] | – | – | – | – | – | non-toxic | 25 | 100 | 2.0
